How the values were obtained:
Test in all cases: relative viability (nuclei count vs DMSO), 5 days (fraction); higher = more cells survive
Doramapimod + Vorinostat = compound: Cc1ccc(-n2nc(C(C)(C)C)cc2NC(=O)Nc2ccc(OCCN3CCOCC3)c3ccccc23)cc1 [Doramapimod] + O=C(CCCCCCC(=O)Nc1ccccc1)NO [Vorinostat] (partner 1 µM)
Summary of the method: (§1)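 Lung cancer cell lines in 1536-well plates got either a single drug or a fixed anchor-drug dose together with five library-drug doses (not always all listed) in √10 steps, by pin tool, on the day after seeding. Nuclei were counted after 5 days, and relative viability is the treated-to-vehicle ratio of nuclei counts. Values are medians of duplicate plates.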

IPA-3 + Lapatinib = compound: C1=CC=C2C(=C1)C=CC(=C2SSC3=C(C=CC4=CC=CC=C43)O)O [IPA-3] + CS(=O)(=O)CCNCc1ccc(-c2ccc3ncnc(Nc4ccc(OCc5cccc(F)c5)c(Cl)c4)c3c2)o1 [Lapatinib] (partner 2 µM)
Summary of the method: as §1

IPA-3 + Navitoclax = compound: C1=CC=C2C(=C1)C=CC(=C2SSC3=C(C=CC4=CC=CC=C43)O)O [IPA-3] + CC1(C)CCC(c2ccc(Cl)cc2)=C(CN2CCN(c3ccc(C(=O)NS(=O)(=O)c4ccc(N[C@H](CCN5CCOCC5)CSc5ccccc5)c(S(=O)(=O)C(F)(F)F)c4)cc3)CC2)C1 [Navitoclax] (partner 0.5 µM)
Summary of the method: as §1

RAF265 + Dasatinib = compound: Cn1c(Nc2ccc(C(F)(F)F)cc2)nc2cc(Oc3ccnc(-c4ncc(C(F)(F)F)[nH]4)c3)ccc21 [RAF265] + Cc1nc(Nc2ncc(C(=O)Nc3c(C)cccc3Cl)s2)cc(N2CCN(CCO)CC2)n1 [Dasatinib] (partner 0.075 µM)
Summary of the method: as §1

Row | Cell Line | relative viability (Doramapimod + Vorinostat; first compound 0.02 µM) | relative viability (Doramapimod + Vorinostat; first compound 0.06325 µM) | relative viability (Doramapimod + Vorinostat; first compound 0.2 µM) | relative viability (Doramapimod + Vorinostat; first compound 0.6325 µM) | relative viability (Doramapimod + Vorinostat; first compound 2 µM) | relative viability (IPA-3 + Lapatinib; first compound 0.2 µM) | relative viability (IPA-3 + Lapatinib; first compound 0.6325 µM) | relative viability (IPA-3 + Lapatinib; first compound 2 µM) | relative viability (IPA-3 + Lapatinib; first compound 6.325 µM) | relative viability (IPA-3 + Lapatinib; first compound 20 µM) | relative viability (IPA-3 + Navitoclax; first compound 0.2 µM) | relative viability (IPA-3 + Navitoclax; first compound 0.6325 µM) | relative viability (IPA-3 + Navitoclax; first compound 2 µM) | relative viability (IPA-3 + Navitoclax; first compound 6.325 µM) | relative viability (IPA-3 + Navitoclax; first compound 20 µM) | relative viability (RAF265 + Dasatinib; first compound 0.01 µM) | relative viability (RAF265 + Dasatinib; first compound 0.03162 µM) | relative viability (RAF265 + Dasatinib; first compound 0.1 µM) | relative viability (RAF265 + Dasatinib; first compound 0.3162 µM) | relative viability (RAF265 + Dasatinib; first compound 1 µM)
1 | HCC-78 | 0.456 | 0.369 | 0.492 | 0.434 | 0.412 | 1.01 | 0.7 | 0.924 | 0.763 | 1.02 | 0.915 | 0.75 | 0.706 | 0.764 | 1.01 | 0.371 | 0.482 | 0.457 | 0.387 | 0.34
2 | HCC-366 | 0.329 | 0.421 | 0.44 | 0.42 | 0.32 | 1.08 | 1.05 | 1.09 | 1.09 | 1.18 | 1.18 | 1.01 | 1.19 | 1.03 | 1.18 | 0.724 | 0.627 | 0.664 | 0.583 | 0.511
3 | HCC-827 | 0.854 | 1.02 | 0.805 | 0.85 | 0.554 | 0.216 | 0.191 | 0.161 | 0.165 | 0.189 | 1.01 | 1.01 | 1 | 0.99 | 0.993 | 0.277 | 0.259 | 0.422 | – | 0.234
4 | HOP-62 | 0.653 | 0.714 | 0.721 | 0.606 | 0.623 | 1.2 | 0.935 | 0.918 | 1.13 | 1.16 | 1.08 | 0.9 | 1 | 0.943 | 1.34 | 0.747 | 0.618 | 0.647 | 0.691 | 0.504
5 | IA-LM | 0.988 | 0.868 | 0.86 | – | 0.745 | 1.07 | 0.8 | 0.755 | 0.578 | 0.725 | 0.793 | 0.683 | 0.765 | 0.601 | 0.392 | – | – | – | – | –
6 | LC-2-ad | 0.753 | 0.748 | 0.742 | 0.745 | 0.764 | 1.04 | 1 | 1.04 | 0.961 | 1.09 | 0.526 | 0.334 | 0.444 | 0.454 | 0.685 | 0.57 | 0.691 | 0.386 | 0.27 | 0.196
7 | LCLC-97TM1 | 0.73 | 0.635 | 0.747 | 0.615 | 0.56 | 1.14 | 1.03 | 1.13 | 0.938 | 0.937 | 0.599 | 0.4 | 0.36 | 0.359 | 0.451 | 0.826 | 0.826 | 0.66 | 0.852 | 0.442
8 | LCLC-103H | 0.788 | 0.799 | 0.875 | 0.845 | 0.751 | – | – | – | – | – | – | – | – | – | – | 0.431 | 0.467 | 0.478 | 0.386 | 0.338
9 | LK-2 | 0.283 | 0.296 | 0.266 | 0.242 | 0.29 | 1.13 | 0.877 | 0.959 | 0.9 | 0.821 | 0.983 | 0.881 | 0.81 | 1.05 | 1.17 | 0.272 | 0.295 | 0.291 | 0.394 | 0.213
10 | NCI-H358 | 0.69 | 0.669 | 0.66 | 0.762 | 0.594 | 0.532 | 0.47 | 0.445 | 0.51 | 0.413 | – | – | – | – | – | 0.179 | 0.217 | 0.16 | 0.171 | 0.0873
11 | NCI-H441 | 0.72 | 0.851 | 0.591 | 0.798 | 0.644 | – | – | – | – | – | 0.814 | – | 0.405 | 0.216 | 0.771 | 0.692 | 0.773 | 0.518 | 0.431 | 0.496
12 | NCI-H522 | 0.963 | 1.05 | 0.871 | 0.845 | 0.874 | – | – | – | – | – | – | – | – | – | – | 0.847 | 0.9 | 0.811 | 0.919 | 0.764
13 | NCI-H650 | 0.534 | 0.568 | 0.423 | 0.414 | 0.456 | 1.22 | 0.955 | 0.802 | 0.857 | 1.3 | – | – | – | – | – | 0.464 | 0.429 | 0.369 | 0.265 | 0.259
14 | NCI-H661 | 0.815 | 0.74 | 0.797 | 0.788 | 0.767 | 0.445 | 0.472 | 0.584 | 0.447 | 0.537 | – | – | – | – | – | 0.925 | 0.771 | 0.546 | 0.598 | 0.42
15 | NCI-H1299 | – | – | – | – | – | 0.966 | 0.936 | 0.944 | 0.894 | 0.91 | 1.08 | 1.08 | 1.03 | 1.01 | 1.03 | – | – | – | – | –
16 | NCI-H1563 | – | – | – | – | – | 0.968 | 0.657 | 0.871 | 1.01 | 0.907 | – | – | – | – | – | 0.469 | 0.482 | 0.508 | 0.45 | 0.441
17 | NCI-H1623 | – | – | – | – | – | – | – | – | – | – | – | – | – | – | – | 0.558 | 0.496 | 0.645 | – | 0.313
18 | NCI-H1648 | 0.348 | 0.405 | 0.52 | 0.709 | 0.224 | – | – | – | – | – | – | – | – | – | – | – | – | – | – | –
19 | NCI-H1703 | – | – | – | – | – | 1.17 | 1.05 | 0.861 | 0.961 | 1.35 | 1.71 | 0.991 | 1.05 | 1.13 | 0.765 | – | – | – | – | –
20 | NCI-H1792 | – | – | – | – | – | 1.07 | 0.888 | 0.94 | 0.894 | 1.01 | 0.939 | 0.665 | 0.55 | 0.675 | 0.825 | 0.848 | 0.83 | 0.759 | 0.575 | 0.293
21 | NCI-H2342 | 0.761 | 0.747 | 0.806 | 0.849 | 0.829 | – | – | – | – | – | – | – | – | – | – | 0.319 | 0.349 | 0.298 | 0.276 | 0.288
22 | SW 900 | 0.571 | 0.514 | 0.546 | 0.584 | 0.436 | – | – | – | – | – | – | – | – | – | – | 0.595 | 0.548 | 0.552 | 0.297 | 0.272
